# Tests used:
# Experiment in all cases: relative viability (nuclei count vs DMSO), 5 days (fraction); higher = more cells survive
# Hydroxychloroquine = compound: CCN(CCO)CCCC(C)Nc1ccnc2cc(Cl)ccc12 [Hydroxychloroquine]
# In short: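 On vehicle-anchored 1536-well plates, lung cancer cell lines held overnight at 37 °C were pinned with five library-drug doses (not always all listed) spaced by √10. With no medium change over 5 days, they were then fixed, permeabilised and Hoechst-stained in one step and imaged at 4×. MetaXpress counted nuclei, and viability is the median across plates of treated-well over vehicle-well nuclei. Acceptance needed control CV below 25% and at least one doubling.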
# [1] = compound: CCN(CCO)CCCC(C)Nc1ccnc2cc(Cl)ccc12 [Hydroxychloroquine] + CCNC(=O)c1noc(-c2cc(C(C)C)c(O)cc2O)c1-c1ccc(CN2CCOCC2)cc1 [Luminespib] (partner 0.01 µM)
# In short: (§1)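 Lung cancer cell lines were seeded in 1536-well plates and dosed by pin tool the next day, with either a single drug or a fixed anchor-drug dose combined with five library-drug doses (not always all listed) spaced in √10 steps. Five days later, one step fixed the cells and stained their nuclei (final 0.05% Triton X-100, 1% formaldehyde, 1 ug/ml Hoechst), and nuclei were counted on 4× images. Relative viability is the nuclei count in treated wells divided by the count in vehicle wells, and each value is the median of duplicate plates.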
# [2] = compound: CCN(CCO)CCCC(C)Nc1ccnc2cc(Cl)ccc12 [Hydroxychloroquine] + COc1cc2c(Oc3ccc(NC(=O)C4(C(=O)Nc5ccc(F)cc5)CC4)cc3F)ccnc2cc1OCCCN1CCOCC1 [Foretinib] (partner 0.25 µM)
# In short: as §1
# [3] = compound: CCN(CCO)CCCC(C)Nc1ccnc2cc(Cl)ccc12 [Hydroxychloroquine] + COc1cccc2cc(-c3nc([C@H]4CC[C@H](C(=O)O)CC4)n4ncnc(N)c34)[nH]c12 [OSI-027] (partner 0.5 µM)
# In short: as §1
# [4] = compound: CCN(CCO)CCCC(C)Nc1ccnc2cc(Cl)ccc12 [Hydroxychloroquine] + Cc1cc(Nc2cc(N3CCN(C)CC3)nc(Sc3ccc(NC(=O)C4CC4)cc3)n2)n[nH]1 [Tozasertib] (partner 0.1 µM)
# In short: as §1
# [5] = compound: CCN(CCO)CCCC(C)Nc1ccnc2cc(Cl)ccc12 [Hydroxychloroquine] + Cc1nc(Nc2ncc(C(=O)Nc3c(C)cccc3Cl)s2)cc(N2CCN(CCO)CC2)n1 [Dasatinib] (partner 0.075 µM)
# In short: as §1
# [6] = compound: CCN(CCO)CCCC(C)Nc1ccnc2cc(Cl)ccc12 [Hydroxychloroquine] + N=C(N)NC(=N)NCCc1ccccc1 [Phenformin] (partner 250 µM)
# In short: as §1
# [7] = compound: CCN(CCO)CCCC(C)Nc1ccnc2cc(Cl)ccc12 [Hydroxychloroquine] + CC(=O)Nc1cccc(-n2c(=O)n(C3CC3)c(=O)c3c(Nc4ccc(I)cc4F)n(C)c(=O)c(C)c32)c1 [Trametinib] (partner 0.02 µM)
# In short: as §1
# [8] = compound: CCN(CCO)CCCC(C)Nc1ccnc2cc(Cl)ccc12 [Hydroxychloroquine] + CC(=O)c1c(C)c2cnc(Nc3ccc(N4CCNCC4)cn3)nc2n(C2CCCC2)c1=O [Palbociclib] (partner 0.5 µM)
# In short: as §1
# [9] = compound: CCN(CCO)CCCC(C)Nc1ccnc2cc(Cl)ccc12 [Hydroxychloroquine] + NC(=O)Nc1cc(-c2cccc(F)c2)sc1C(=O)N[C@H]1CCCNC1 [AZD7762] (partner 0.2 µM)
# In short: as §1
# [10] = compound: CCN(CCO)CCCC(C)Nc1ccnc2cc(Cl)ccc12 [Hydroxychloroquine] + Nc1nc2[nH]cc(CCc3ccc(C(=O)N[C@@H](CCC(=O)O)C(=O)O)cc3)c2c(=O)[nH]1 [Pemetrexed] (partner 0.2 µM)
# In short: as §1
# [11] = compound: CCN(CCO)CCCC(C)Nc1ccnc2cc(Cl)ccc12 [Hydroxychloroquine] + Nc1ncn([C@H]2C[C@H](O)[C@@H](CO)O2)c(=O)n1 [Decitabine] (partner 2 µM)
# In short: as §1
# [12] = compound: CCN(CCO)CCCC(C)Nc1ccnc2cc(Cl)ccc12 [Hydroxychloroquine] + O=C(CCCCCCC(=O)Nc1ccccc1)NO [Vorinostat] (partner 1 µM)
# In short: as §1
# [13] = compound: CCN(CCO)CCCC(C)Nc1ccnc2cc(Cl)ccc12 [Hydroxychloroquine] + O=C(c1cc(Cc2n[nH]c(=O)c3ccccc23)ccc1F)N1CCN(C(=O)C2CC2)CC1 [Olaparib] (partner 8 µM)
# In short: as §1
cell line,measurement,setting,value
NCI-H1623,relative viability,Hydroxychloroquine; 0.5 µM,0.88
same,relative viability,Hydroxychloroquine; 1.581 µM,0.959
same,relative viability,Hydroxychloroquine; 5 µM,0.941
same,relative viability,Hydroxychloroquine; 15.81 µM,0.943
same,relative viability,Hydroxychloroquine; 50 µM,0.992
same,relative viability,[1]; first compound 0.5 µM,0.431
same,relative viability,[1]; first compound 1.581 µM,0.409
same,relative viability,[1]; first compound 5 µM,0.496
same,relative viability,[1]; first compound 15.81 µM,0.74
same,relative viability,[1]; first compound 50 µM,0.537
same,relative viability,[2]; first compound 0.5 µM,0.823
same,relative viability,[2]; first compound 1.581 µM,0.842
same,relative viability,[2]; first compound 5 µM,0.88
same,relative viability,[2]; first compound 15.81 µM,0.937
same,relative viability,[2]; first compound 50 µM,0.82
same,relative viability,[3]; first compound 0.5 µM,0.411
same,relative viability,[3]; first compound 1.581 µM,0.406
same,relative viability,[3]; first compound 5 µM,0.449
same,relative viability,[3]; first compound 15.81 µM,0.418
same,relative viability,[3]; first compound 50 µM,0.439
same,relative viability,[4]; first compound 0.5 µM,0.392
same,relative viability,[4]; first compound 1.581 µM,0.405
same,relative viability,[4]; first compound 5 µM,0.406
same,relative viability,[4]; first compound 15.81 µM,0.526
same,relative viability,[4]; first compound 50 µM,0.488
same,relative viability,[5]; first compound 0.5 µM,0.554
same,relative viability,[5]; first compound 1.581 µM,0.485
same,relative viability,[5]; first compound 5 µM,0.51
same,relative viability,[5]; first compound 15.81 µM,0.547
same,relative viability,[5]; first compound 50 µM,0.52
same,relative viability,[6]; first compound 0.5 µM,0.544
same,relative viability,[6]; first compound 1.581 µM,0.565
same,relative viability,[6]; first compound 5 µM,0.578
same,relative viability,[6]; first compound 15.81 µM,0.606
same,relative viability,[6]; first compound 50 µM,0.588
SW 900,relative viability,Hydroxychloroquine; 0.5 µM,0.879
same,relative viability,Hydroxychloroquine; 1.581 µM,0.729
same,relative viability,Hydroxychloroquine; 5 µM,0.837
same,relative viability,Hydroxychloroquine; 15.81 µM,0.717
same,relative viability,Hydroxychloroquine; 50 µM,0.889
same,relative viability,[7]; first compound 0.5 µM,0.761
same,relative viability,[7]; first compound 1.581 µM,1.01
same,relative viability,[7]; first compound 5 µM,0.779
same,relative viability,[7]; first compound 15.81 µM,0.879
same,relative viability,[7]; first compound 50 µM,0.806
same,relative viability,[8]; first compound 0.5 µM,0.5
same,relative viability,[8]; first compound 1.581 µM,0.502
same,relative viability,[8]; first compound 5 µM,0.568
same,relative viability,[8]; first compound 15.81 µM,0.597
same,relative viability,[8]; first compound 50 µM,0.657
same,relative viability,[1]; first compound 0.5 µM,0.156
same,relative viability,[1]; first compound 1.581 µM,0.176
same,relative viability,[1]; first compound 5 µM,0.195
same,relative viability,[1]; first compound 15.81 µM,0.17
same,relative viability,[1]; first compound 50 µM,0.177
same,relative viability,[2]; first compound 0.5 µM,0.941
same,relative viability,[2]; first compound 1.581 µM,0.824
same,relative viability,[2]; first compound 5 µM,0.866
same,relative viability,[2]; first compound 15.81 µM,0.816
same,relative viability,[2]; first compound 50 µM,0.869
same,relative viability,[3]; first compound 0.5 µM,0.491
same,relative viability,[3]; first compound 1.581 µM,0.664
same,relative viability,[3]; first compound 5 µM,0.482
same,relative viability,[3]; first compound 15.81 µM,0.547
same,relative viability,[3]; first compound 50 µM,0.505
same,relative viability,[4]; first compound 0.5 µM,0.517
same,relative viability,[4]; first compound 1.581 µM,0.531
same,relative viability,[4]; first compound 5 µM,0.548
same,relative viability,[4]; first compound 15.81 µM,0.74
same,relative viability,[4]; first compound 50 µM,0.572
same,relative viability,[5]; first compound 0.5 µM,0.586
same,relative viability,[5]; first compound 1.581 µM,0.574
same,relative viability,[5]; first compound 5 µM,0.671
same,relative viability,[5]; first compound 15.81 µM,0.528
same,relative viability,[5]; first compound 50 µM,0.559
same,relative viability,[6]; first compound 0.5 µM,0.514
same,relative viability,[6]; first compound 1.581 µM,0.496
same,relative viability,[6]; first compound 5 µM,0.509
same,relative viability,[6]; first compound 15.81 µM,0.585
same,relative viability,[6]; first compound 50 µM,0.513
same,relative viability,[9]; first compound 0.5 µM,0.678
same,relative viability,[9]; first compound 1.581 µM,0.681
same,relative viability,[9]; first compound 5 µM,0.679
same,relative viability,[9]; first compound 15.81 µM,0.748
same,relative viability,[9]; first compound 50 µM,0.594
same,relative viability,[10]; first compound 0.5 µM,0.43
same,relative viability,[10]; first compound 1.581 µM,0.47
same,relative viability,[10]; first compound 5 µM,0.448
same,relative viability,[10]; first compound 15.81 µM,0.457
same,relative viability,[10]; first compound 50 µM,0.444
same,relative viability,[11]; first compound 0.5 µM,0.398
same,relative viability,[11]; first compound 1.581 µM,0.445
same,relative viability,[11]; first compound 5 µM,0.422
same,relative viability,[11]; first compound 15.81 µM,0.417
same,relative viability,[11]; first compound 50 µM,0.41
same,relative viability,[12]; first compound 0.5 µM,0.532
same,relative viability,[12]; first compound 1.581 µM,0.535
same,relative viability,[12]; first compound 5 µM,0.504
same,relative viability,[12]; first compound 15.81 µM,0.382
same,relative viability,[12]; first compound 50 µM,0.505
same,relative viability,[13]; first compound 0.5 µM,0.894
same,relative viability,[13]; first compound 1.581 µM,0.852
same,relative viability,[13]; first compound 5 µM,0.88
same,relative viability,[13]; first compound 15.81 µM,0.819
same,relative viability,[13]; first compound 50 µM,0.75

# From the supplement of paper PMC10307832
